Values of other authors in patent US20150272967A1, “EXTREMELY HIGH LOADING DOSE” (priority 2013, published 2015).

Experiments:
[1] = system: prostate cancer patients; settings: dose significantly lower than that of the invention
[2] = system: breast cancer patients; settings: modest low doses

Compound | patients showing improvement (significant decrease in the number of positive cancer biopsy samples) [1] [%] | disease free survival ([2]; 25.5 without supplementation) [months] | median overall survival ([2]; 32.8 without supplementation) [months]
C=C1CC[C@H](O)C/C1=C/C=C1\CCC[C@]2(C)[C@@H]([C@H](C)CCCC(C)C)CC[C@@H]12 [Vitamin D3, cholecalciferol] | 55 | – | –
Vitamin D | – | 32.6 | 43.8
